Each structure is given as a SMILES string.

The record followed here is patent US9694015B2, “Methods for the treatment of locally advanced breast cancer” (Celgene Corporation, priority 2012, dated 2017).

Assay [1] relates to IL-6. In words: LPS-stimulated hPBMC cytokine/chemokine production: IL-6. It is filed as cell-based. As to conditions: Homo sapiens.
Assay [2] concerns IL-8. In words: LPS-stimulated hPBMC cytokine/chemokine production: IL-8. It is filed as cell-based. Conditions: Homo sapiens. The source says: (§1) Data provided are IC50 (μM) values for the indicated cytokines
Assay [3] has as its system IL-1β. Put plainly: LPS-stimulated hPBMC cytokine/chemokine production: IL-1β. The class given is cell-based. As to conditions: Homo sapiens.
Text: as §1

For assay [4], the system named is GM-CSF. In words: LPS-stimulated hPBMC cytokine/chemokine production: GM-CSF. It is filed as cell-based. Conditions: Homo sapiens; LPS-stimulated hPBMC; read-out: GM-CSF IC50.
For assay [5], the system named is MDC. Put plainly: LPS-stimulated hPBMC cytokine/chemokine production: MDC. It is filed as cell-based. As to conditions: Homo sapiens.
The test system of assay [6] is MIP-1α. In words: LPS-stimulated hPBMC cytokine/chemokine production: MIP-1α. It is filed as cell-based. As to conditions: Homo sapiens; LPS-stimulated hPBMC; read-out: MIP-1α IC50.
Assay [7] deals with MIP-1β. In words: LPS-stimulated hPBMC cytokine/chemokine production: MIP-1β. It is filed as cell-based. As to conditions: Homo sapiens; LPS-stimulated hPBMC; read-out: MIP-1β IC50.
In assay [8] the test system is TNF-α. Put plainly: LPS-stimulated hPBMC cytokine/chemokine production: TNF-α. It is filed as cell-based. As to conditions: Homo sapiens.
Text: as §1

For assay [9], the system named is IL-10. In words: LPS-stimulated hPBMC cytokine/chemokine production: IL-10 enhancement. It is filed as cell-based, human.
Text: as §1

Assay [10] relates to MCP-1. Put plainly: LPS-stimulated hPBMC cytokine/chemokine production: MCP-1 enhancement. It is filed as cell-based, human.
Text: as §1

For assay [11], the system named is RANTES. Put plainly: LPS-stimulated hPBMC cytokine/chemokine production: RANTES enhancement. The class given is cell-based, human.

Turning to `O=C1CCC(N2C(=O)c3ccccc3C2=O)C(=O)N1` (stereo not drawn) [thalidomide, reference compound], the IC50 in assay [1], in [2], in assay [3], in [4], in assay [5] and in assay [6] was more than 10000 nM throughout. The IC50 in assay [7] and in assay [8] was more than 10000 nM throughout. Also, the “IL-10 (% of control)” value in assay [9] is reported as 170 % of control. Also, the “MCP-1 (% of control)” value in assay [10] is on record as 138 % of control. The “RANTES (% of control)” value in [11] is given as 89 % of control.
In assay [8], `O=C1CCC(N2Cc3c(OCc4ccc(OCCN5CCCC5)cc4)cccc3C2=O)C(=O)N1` (stereo not drawn) [3-(1-oxo-4-(4-(2-(pyrrolidin-1-yl)ethoxy)benzyloxy)isoindolin-2-yl)-piperidine-2,6-dione] displayed an IC50 of 0.52 nM.
On to `O=C1CCC(N2Cc3c(OCc4ccc(CN5CCOCC5)cc4)cccc3C2=O)C(=O)N1` (stereo not drawn) [3-(4-((4-(morpholinomethyl)benzyl)oxy)-1-oxoisoindolin-2-yl)piperidine-2,6-dione], for which the IC50 in [1] was 10 nM; in assay [2] it was more than 10000 nM; in [3] it was 0.85 nM; in assay [4] it was 9.2 nM; in assay [5] it was 2.6 nM; in assay [6] it was 190 nM. For the same compound, the values for the IC50 in [7] and in [8] were more than 10000 nM and 1.8 nM, respectively. Further, in [9], the “IL-10 (% of control)” value is on record as 372 % of control. The “MCP-1 (% of control)” value in assay [10] is reported as 208 % of control. In addition, the “RANTES (% of control)” value in assay [11] is recorded as 153 % of control.
For the compound `O=C1CCC(N2Cc3c(OCc4ccc(OCCN5CCOCC5)cc4)cccc3C2=O)C(=O)N1` (stereo not drawn) [3-(4-(4-(2-morpholin-4-yl-ethoxy)-benzyloxy)-1-oxoisoindolin-2-yl)-piperidine-2,6-dione], in [8], the IC50 turned out to be 0.96 nM.
In the case of `O=C1CC[C@@H](N2Cc3c(OCc4ccc(CN5CCOCC5)cc4)cccc3C2=O)C(=O)N1` [(R)-3-(4-((4-(morpholinomethyl)benzyl)oxy)-1-oxoisoindolin-2-yl)piperidine-2,6-dione], the IC50 in assay [1] is 83 nM; in [2] it was more than 10000 nM; in assay [3] it was 6.2 nM; in [4], 39 nM; in [5] it was 12 nM; in assay [6], 450 nM. The IC50 in assay [7] is more than 10000 nM; in assay [8] it was 9.5 nM. Moreover, the “IL-10 (% of control)” value in [9] was 442 % of control. The “MCP-1 (% of control)” value in [10] is 223 % of control. Further, in assay [11], the “RANTES (% of control)” value is 151 % of control.
Compound `O=C1CCC(N2Cc3c(OCc4ccc(CCN5CCOCC5)cc4)cccc3C2=O)C(=O)N1` (stereo not drawn) [3-{4-[4-(2-morpholin-4-yl-ethyl)-benzyloxy]-1-oxo-1,3-dihydro-isoindol-2-yl}-piperidine-2,6-dione] had an IC50 in [8] of 0.79 nM.

Broadly, the IC50 is the midpoint of a concentration-inhibition curve.
